Data published in publication PMC13186263 (The Journal of organic chemistry, 2020).

Tests used:
PKCε = molecular target: T1, PKCε (Homo sapiens, UniProt Q02156); assay: PKC binding assay, competition with 3H-PDBu
T1 sequence (Q02156 1-737): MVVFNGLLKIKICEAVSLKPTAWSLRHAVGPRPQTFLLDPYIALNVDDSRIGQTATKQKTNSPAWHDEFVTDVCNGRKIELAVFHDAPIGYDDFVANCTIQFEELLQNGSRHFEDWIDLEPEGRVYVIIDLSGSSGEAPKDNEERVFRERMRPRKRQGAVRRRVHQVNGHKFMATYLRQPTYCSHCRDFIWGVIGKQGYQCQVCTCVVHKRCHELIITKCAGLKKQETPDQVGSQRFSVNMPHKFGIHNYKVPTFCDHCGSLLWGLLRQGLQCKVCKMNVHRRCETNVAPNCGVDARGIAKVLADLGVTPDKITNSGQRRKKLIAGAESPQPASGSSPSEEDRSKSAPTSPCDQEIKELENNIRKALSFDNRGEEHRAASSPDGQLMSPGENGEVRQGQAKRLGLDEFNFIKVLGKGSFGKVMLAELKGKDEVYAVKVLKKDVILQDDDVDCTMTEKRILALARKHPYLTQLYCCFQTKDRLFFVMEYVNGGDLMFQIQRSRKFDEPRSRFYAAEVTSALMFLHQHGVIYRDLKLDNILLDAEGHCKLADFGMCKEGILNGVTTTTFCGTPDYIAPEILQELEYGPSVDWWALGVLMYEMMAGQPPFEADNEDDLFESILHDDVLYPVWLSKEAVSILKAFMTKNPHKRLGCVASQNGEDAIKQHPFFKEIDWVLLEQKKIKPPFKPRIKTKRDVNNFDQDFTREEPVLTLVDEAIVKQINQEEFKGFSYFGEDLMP

PKCθ = PKCθ (Homo sapiens, UniProt Q04759); assay: PKC binding assay, competition with 3H-PDBu
PKCθ, sequence (Q04759 whole entry, canonical isoform): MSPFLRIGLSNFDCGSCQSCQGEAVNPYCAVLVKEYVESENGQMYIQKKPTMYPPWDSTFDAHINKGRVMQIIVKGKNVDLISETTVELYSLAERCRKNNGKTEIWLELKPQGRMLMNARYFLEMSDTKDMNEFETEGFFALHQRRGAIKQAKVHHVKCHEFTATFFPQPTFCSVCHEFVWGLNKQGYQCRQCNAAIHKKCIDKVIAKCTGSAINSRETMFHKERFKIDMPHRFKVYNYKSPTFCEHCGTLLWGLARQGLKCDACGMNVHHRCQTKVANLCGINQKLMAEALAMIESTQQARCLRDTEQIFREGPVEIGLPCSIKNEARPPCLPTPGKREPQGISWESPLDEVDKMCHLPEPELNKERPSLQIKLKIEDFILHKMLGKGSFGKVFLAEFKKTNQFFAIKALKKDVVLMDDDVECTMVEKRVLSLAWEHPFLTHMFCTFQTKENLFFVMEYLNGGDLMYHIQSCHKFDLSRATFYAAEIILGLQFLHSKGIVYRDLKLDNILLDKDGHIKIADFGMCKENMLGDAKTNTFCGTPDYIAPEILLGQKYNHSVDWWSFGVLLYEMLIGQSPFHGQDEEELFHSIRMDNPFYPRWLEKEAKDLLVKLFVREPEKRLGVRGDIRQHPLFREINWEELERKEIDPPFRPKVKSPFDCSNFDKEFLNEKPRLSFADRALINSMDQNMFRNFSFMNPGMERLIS

PKC isoforms = assay: Cell-free competitive PKC binding, statements across isoforms; set-up: species or system human; conditions: five PKC isoforms
PKCα = PKCα (Homo sapiens, UniProt P17252); assay: biochemical; assay type: binding
PKCβI = PKCβI (Homo sapiens, UniProt P05771); assay: PKC binding assay, competition with 3H-PDBu
PKCβI, sequence (P05771 whole entry): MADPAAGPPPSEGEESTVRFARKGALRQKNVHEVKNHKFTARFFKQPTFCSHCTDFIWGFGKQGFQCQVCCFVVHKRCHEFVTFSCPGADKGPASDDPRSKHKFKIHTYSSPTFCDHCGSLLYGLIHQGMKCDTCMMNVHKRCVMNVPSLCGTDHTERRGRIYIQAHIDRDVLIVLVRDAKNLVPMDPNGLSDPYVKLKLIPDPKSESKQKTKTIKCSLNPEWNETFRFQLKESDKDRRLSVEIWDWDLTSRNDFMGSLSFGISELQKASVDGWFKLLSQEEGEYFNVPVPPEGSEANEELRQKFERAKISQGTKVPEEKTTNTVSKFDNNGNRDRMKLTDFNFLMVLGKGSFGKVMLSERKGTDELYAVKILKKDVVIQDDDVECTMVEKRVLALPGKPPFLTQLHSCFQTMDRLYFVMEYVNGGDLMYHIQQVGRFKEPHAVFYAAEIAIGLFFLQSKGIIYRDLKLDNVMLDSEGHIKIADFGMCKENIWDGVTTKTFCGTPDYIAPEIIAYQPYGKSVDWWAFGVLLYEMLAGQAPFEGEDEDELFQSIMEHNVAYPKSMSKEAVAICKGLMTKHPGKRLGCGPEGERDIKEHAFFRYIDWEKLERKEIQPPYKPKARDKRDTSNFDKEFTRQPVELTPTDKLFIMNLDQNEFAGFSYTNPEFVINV

PKCδ = PKCδ (Homo sapiens, UniProt Q05655); assay: PKC binding assay, competition with 3H-PDBu
PKCδ, sequence (Q05655 whole entry): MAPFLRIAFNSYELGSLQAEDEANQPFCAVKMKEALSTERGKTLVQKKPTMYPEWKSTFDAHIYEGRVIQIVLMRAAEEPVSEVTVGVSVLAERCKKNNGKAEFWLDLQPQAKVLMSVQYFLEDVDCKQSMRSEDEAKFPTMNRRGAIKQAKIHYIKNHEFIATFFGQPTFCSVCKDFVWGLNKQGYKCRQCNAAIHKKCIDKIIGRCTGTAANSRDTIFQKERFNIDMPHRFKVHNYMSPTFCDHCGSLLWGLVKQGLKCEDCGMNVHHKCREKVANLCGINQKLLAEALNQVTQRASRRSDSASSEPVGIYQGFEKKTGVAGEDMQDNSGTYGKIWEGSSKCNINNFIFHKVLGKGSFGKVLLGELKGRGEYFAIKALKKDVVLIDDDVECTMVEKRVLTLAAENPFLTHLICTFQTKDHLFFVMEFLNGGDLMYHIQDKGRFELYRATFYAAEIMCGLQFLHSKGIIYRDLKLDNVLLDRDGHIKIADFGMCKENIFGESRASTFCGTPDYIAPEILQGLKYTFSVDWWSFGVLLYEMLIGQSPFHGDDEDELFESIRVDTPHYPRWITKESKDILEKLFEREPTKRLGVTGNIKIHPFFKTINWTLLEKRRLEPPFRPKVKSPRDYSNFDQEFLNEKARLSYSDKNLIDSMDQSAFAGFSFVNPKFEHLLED

CCC/C=C/C=C/C(=O)O[C@H]1/C(=C/C(=O)OC)C[C@H]2C[C@H]([C@@H](C)O)OC(=O)C[C@H](O)C[C@@H]3C[C@H](OC(C)=O)C(C)(C)[C@](O)(C[C@@H]4C/C(=C/C(=O)OC)C[C@H](/C=C/C(C)(C)[C@]1(O)O2)O4)O3 [bryostatin 1, Bryostatin 1, reference compound]
Ki (PKCε): 3 nM
Ki (PKCθ): 1.5 nM

CCCCCCCC(=O)O[C@H]1/C(=C/C(=O)OC)C[C@H]2C[C@H]([C@@H](C)O)OC(=O)CCCC(=O)OCC(C)(C)[C@]1(O)O2 [7b, (1S,3R,13S,14S,E)-13-Hydroxy-3-((R)-1-hydroxyethyl)-15-(2-methoxy-2-oxoethylidene)-12,12-dimethyl-5,9-dioxo-4,10,17-trioxabicyclo[11.3.1]heptadecan-14-yl Octanoate]
PKC binding affinities (PKC isoforms): strongly attenuated binding affinity relative to the des-methyl compound 7a

CCCCCCCC(=O)O[C@H]1/C(=C/C(=O)OC)C[C@H]2C[C@H](CO)OC(=O)CCCC(=O)OCC(C)(C)[C@]1(O)O2 [7a, (1S,3R,13S,14S,E)-13-Hydroxy-3-(hydroxymethyl)-15-(2-methoxy-2-oxoethylidene)-12,12-dimethyl-5,9-dioxo-4,10,17-trioxabicyclo[11.3.1]heptadecan-14-yl Octanoate]
Ki (PKCα): 4.4 nM
Ki (PKCβI): 4 nM
Ki (PKCδ): 1.7 nM
Ki (PKCε): 2.7 nM
Ki (PKCθ): 1.5 nM
PKC binding affinities (PKC isoforms): comparable to bryostatin
